Source: the supplement of paper PMC10011410

Experiments:
[1] = test system: U-2 OS; assay: AUC of culture confluence over time (live-cell imaging) (AUC (confluence % x time)); higher = more confluent culture (less growth inhibition)
Protocol: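 Live-cell Incucyte imaging of U-2 OS cells in F-12K medium. Compounds were tested mostly at 5, 10 and 20 uM, and cells were imaged every 4 h for up to 60 h. Value is the area under the curve of phase-contrast confluence over time.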

[2] = test system: U-2 OS; assay: relative cell count vs DMSO (cell painting) (fraction of DMSO control); higher = more cells remaining (less cytotoxic); conditions: 24 h
Protocol: (§1)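 Cell painting in U-2 OS cells (384-well, about 1,500 cells per well), compound exposure 24 h, usually six 2-fold concentrations from 20 to 0.625 uM (some compounds higher or lower). Relative cell count is the cell number per well relative to DMSO wells. Activity score is the Mahalanobis distance of the morphological profile from DMSO control wells. Mean of four technical replicate plates.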

[3] = test system: U-2 OS; assay: cell painting activity score (Mahalanobis distance from DMSO wells); higher = stronger morphological phenotype; conditions: 24 h
Protocol: as §1

COc1ccc(/C=C/C(=O)O[C@@H]2[C@H](O[C@@H]3O[C@@H](C)[C@H](O)[C@@H](O)[C@H]3O)[C@@H](O[C@@H]3O[C@@H](C)[C@H](O[C@@H]4OC[C@@H](O[C@@H]5O[C@H](CO)[C@H](O)[C@H](O)[C@H]5O)[C@H](O)[C@H]4O)[C@@H](O)[C@H]3O)[C@H](OC(=O)[C@]34CCC(C)(C)C[C@H]3C3=CC[C@@H]5[C@@]6(C)C[C@H](O)[C@H](O[C@@H]7O[C@H](CO)[C@@H](O)[C@H](O)[C@H]7O)[C@@](C)(C(=O)O)[C@@H]6CC[C@@]5(C)[C@]3(CO)CC4)O[C@@H]2C)cc1
AUC of culture confluence over time ([1]; 5 µM): 43.7
AUC of culture confluence over time ([1]; 10 µM): 44.3
AUC of culture confluence over time ([1]; 20 µM): 14.2
relative cell count ([2]; 0.625 µM): 1.07
relative cell count ([2]; 1.25 µM): 0.975
relative cell count ([2]; 2.5 µM): 0.938
relative cell count ([2]; 5 µM): 0.66
relative cell count ([2]; 10 µM): 0.252
relative cell count ([2]; 20 µM): 0.035
cell painting activity score ([3]; 0.625 µM): 8.17
cell painting activity score ([3]; 1.25 µM): 11.2
cell painting activity score ([3]; 2.5 µM): 12.4
cell painting activity score ([3]; 5 µM): 9.11
cell painting activity score ([3]; 10 µM): 10.1
cell painting activity score ([3]; 20 µM): 37.6

COc1cc(OC)c2ccccc2c1C=C1C(=O)NC(=S)NC1=O
AUC of culture confluence over time ([1]; 5 µM): 13.1
AUC of culture confluence over time ([1]; 10 µM): 12.8
AUC of culture confluence over time ([1]; 20 µM): 13.6
relative cell count ([2]; 0.625 µM): 0.833
relative cell count ([2]; 1.25 µM): 0.687
relative cell count ([2]; 2.5 µM): 0.472
relative cell count ([2]; 5 µM): 0.428
relative cell count ([2]; 10 µM): 0.377
relative cell count ([2]; 20 µM): 0.379
cell painting activity score ([3]; 0.625 µM): 13.6
cell painting activity score ([3]; 1.25 µM): 16.2
cell painting activity score ([3]; 2.5 µM): 16.1
cell painting activity score ([3]; 5 µM): 16.1
cell painting activity score ([3]; 10 µM): 18
cell painting activity score ([3]; 20 µM): 17.8

CC(C)[C@H]1OC(=O)[C@H](Cc2ccccc2)N(C)C(=O)[C@@H](C(C)C)OC(=O)[C@H](Cc2ccccc2)N(C)C(=O)[C@@H](C(C)C)OC(=O)[C@H](Cc2ccccc2)N(C)C1=O
AUC of culture confluence over time ([1]; 5 µM): 19.7
AUC of culture confluence over time ([1]; 10 µM): 28.9
AUC of culture confluence over time ([1]; 20 µM): 11.6
relative cell count ([2]; 0.625 µM): 0.976
relative cell count ([2]; 1.25 µM): 0.957
relative cell count ([2]; 2.5 µM): 0.981
relative cell count ([2]; 5 µM): 0.73
relative cell count ([2]; 10 µM): 0.439
relative cell count ([2]; 20 µM): 0.0218
cell painting activity score ([3]; 0.625 µM): 3.92
cell painting activity score ([3]; 1.25 µM): 4.9
cell painting activity score ([3]; 2.5 µM): 9.63
cell painting activity score ([3]; 5 µM): 14.2
cell painting activity score ([3]; 10 µM): 15.5
cell painting activity score ([3]; 20 µM): 34.1

Oc1cc(O)cc(/C=C/c2ccc(O)c(O)c2)c1
AUC of culture confluence over time ([1]; 5 µM): 49.3
AUC of culture confluence over time ([1]; 10 µM): 53.9
AUC of culture confluence over time ([1]; 20 µM): 45.4
relative cell count ([2]; 0.625 µM): 1.06
relative cell count ([2]; 1.25 µM): 1.01
relative cell count ([2]; 2.5 µM): 0.995
relative cell count ([2]; 5 µM): 0.951
relative cell count ([2]; 10 µM): 0.958
relative cell count ([2]; 20 µM): 0.886
cell painting activity score ([3]; 0.625 µM): 3.37
cell painting activity score ([3]; 1.25 µM): 3.39
cell painting activity score ([3]; 2.5 µM): 4.93
cell painting activity score ([3]; 5 µM): 8.04
cell painting activity score ([3]; 10 µM): 10.9
cell painting activity score ([3]; 20 µM): 13.7

CNC(=O)c1cc(Oc2ccc(NC(=O)Nc3ccc(Cl)c(C(F)(F)F)c3)cc2)ccn1
AUC of culture confluence over time ([1]; 5 µM): 50.1
AUC of culture confluence over time ([1]; 10 µM): 29.6
AUC of culture confluence over time ([1]; 20 µM): 15.6
relative cell count ([2]; 0.625 µM): 1.02
relative cell count ([2]; 1.25 µM): 0.956
relative cell count ([2]; 2.5 µM): 0.971
relative cell count ([2]; 5 µM): 0.978
relative cell count ([2]; 10 µM): 0.705
relative cell count ([2]; 20 µM): 0.348
cell painting activity score ([3]; 0.625 µM): 10.7
cell painting activity score ([3]; 1.25 µM): 11.4
cell painting activity score ([3]; 2.5 µM): 10.3
cell painting activity score ([3]; 5 µM): 12.4
cell painting activity score ([3]; 10 µM): 9.94
cell painting activity score ([3]; 20 µM): 10.5

Cc1cnc(CNC(=O)c2c(=O)c3ccc(N4CCCN(C)CC4)nc3n3c2sc2ccccc23)cn1
AUC of culture confluence over time ([1]; 5 µM): 33.9
AUC of culture confluence over time ([1]; 10 µM): 34.5
AUC of culture confluence over time ([1]; 20 µM): 35
relative cell count ([2]; 0.625 µM): 0.709
relative cell count ([2]; 1.25 µM): 0.607
relative cell count ([2]; 2.5 µM): 0.591
relative cell count ([2]; 5 µM): 0.572
relative cell count ([2]; 10 µM): 0.559
relative cell count ([2]; 20 µM): 0.548
cell painting activity score ([3]; 0.625 µM): 9.34
cell painting activity score ([3]; 1.25 µM): 10.9
cell painting activity score ([3]; 2.5 µM): 10.3
cell painting activity score ([3]; 5 µM): 10.4
cell painting activity score ([3]; 10 µM): 11.4
cell painting activity score ([3]; 20 µM): 11

O=C(O)C[C@@H]1C(=O)O[C@H]2[C@@H]3OC(=O)c4cc(O)c(O)c(O)c4-c4c(cc(O)c(O)c4O)C(=O)OC[C@H]2O[C@@H](OC(=O)c2cc(O)c(O)c(O)c2)[C@@H]3OC(=O)c2cc(O)c(O)c3c2[C@H]1[C@H](O)C(=O)O3
AUC of culture confluence over time ([1]; 5 µM): 45.6
AUC of culture confluence over time ([1]; 10 µM): 45.4
AUC of culture confluence over time ([1]; 20 µM): 41.8
relative cell count ([2]; 0.625 µM): 1.01
relative cell count ([2]; 1.25 µM): 1
relative cell count ([2]; 2.5 µM): 1.06
relative cell count ([2]; 5 µM): 1.04
relative cell count ([2]; 10 µM): 1.05
relative cell count ([2]; 20 µM): 1.05
cell painting activity score ([3]; 0.625 µM): 3.42
cell painting activity score ([3]; 1.25 µM): 3.94
cell painting activity score ([3]; 2.5 µM): 4.16
cell painting activity score ([3]; 5 µM): 5.6
cell painting activity score ([3]; 10 µM): 5.3
cell painting activity score ([3]; 20 µM): 8.86

O=C(CBr)N1CC([N+](=O)[O-])([N+](=O)[O-])C1
AUC of culture confluence over time ([1]; 5 µM): 50
AUC of culture confluence over time ([1]; 10 µM): 49.9
AUC of culture confluence over time ([1]; 20 µM): 42.4
relative cell count ([2]; 0.625 µM): 0.992
relative cell count ([2]; 1.25 µM): 1.02
relative cell count ([2]; 2.5 µM): 0.919
relative cell count ([2]; 5 µM): 0.891
relative cell count ([2]; 10 µM): 0.972
relative cell count ([2]; 20 µM): 0.873
cell painting activity score ([3]; 0.625 µM): 6.87
cell painting activity score ([3]; 1.25 µM): 7.38
cell painting activity score ([3]; 2.5 µM): 11.3
cell painting activity score ([3]; 5 µM): 10.6
cell painting activity score ([3]; 10 µM): 11.8
cell painting activity score ([3]; 20 µM): 11.3

CN1C(=O)[C@@]23C[C@]4([C@]56C[C@@]78SS[C@@](CO)(C(=O)N7[C@H]5Nc5ccccc56)N(C)C8=O)c5ccccc5N[C@@H]4N2C(=O)[C@]1(CO)SS3
AUC of culture confluence over time ([1]; 5 µM): 9.52
AUC of culture confluence over time ([1]; 10 µM): 13.4
AUC of culture confluence over time ([1]; 20 µM): 13.8
relative cell count ([2]; 0.625 µM): 0.176
relative cell count ([2]; 1.25 µM): 0.0258
relative cell count ([2]; 2.5 µM): 0.0235
relative cell count ([2]; 5 µM): 0.0282
relative cell count ([2]; 10 µM): 0.0283
relative cell count ([2]; 20 µM): 0.0118
cell painting activity score ([3]; 0.625 µM): 16.3
cell painting activity score ([3]; 1.25 µM): 21.7
cell painting activity score ([3]; 2.5 µM): 17.3
cell painting activity score ([3]; 5 µM): 16.4
cell painting activity score ([3]; 10 µM): 7.82
cell painting activity score ([3]; 20 µM): 14

C=C1[C@@H](C)[C@H]2[C@H](Cc3ccccc3)NC(=O)[C@]23OC(=O)/C=C/[C@H](O)CCC[C@@H](C)C/C=C/[C@H]3[C@@H]1O
AUC of culture confluence over time ([1]; 5 µM): 29
AUC of culture confluence over time ([1]; 10 µM): 26.1
AUC of culture confluence over time ([1]; 20 µM): 26.1
relative cell count ([2]; 0.625 µM): 0.968
relative cell count ([2]; 1.25 µM): 0.954
relative cell count ([2]; 2.5 µM): 0.865
relative cell count ([2]; 5 µM): 0.715
relative cell count ([2]; 10 µM): 0.722
relative cell count ([2]; 20 µM): 0.667
cell painting activity score ([3]; 0.625 µM): 9.61
cell painting activity score ([3]; 1.25 µM): 11.2
cell painting activity score ([3]; 2.5 µM): 9.71
cell painting activity score ([3]; 5 µM): 10.7
cell painting activity score ([3]; 10 µM): 12
cell painting activity score ([3]; 20 µM): 16.1

CCN(CCO)CCCOc1ccc2c(Nc3cc(CC(=O)Nc4cccc(F)c4)[nH]n3)ncnc2c1
AUC of culture confluence over time ([1]; 5 µM): 30.4
AUC of culture confluence over time ([1]; 10 µM): 32.1
AUC of culture confluence over time ([1]; 20 µM): 29.6
relative cell count ([2]; 0.625 µM): 0.771
relative cell count ([2]; 1.25 µM): 0.757
relative cell count ([2]; 2.5 µM): 0.76
relative cell count ([2]; 5 µM): 0.8
relative cell count ([2]; 10 µM): 0.788
relative cell count ([2]; 20 µM): 0.757
cell painting activity score ([3]; 0.625 µM): 14.3
cell painting activity score ([3]; 1.25 µM): 14.4
cell painting activity score ([3]; 2.5 µM): 14.3
cell painting activity score ([3]; 5 µM): 14.3
cell painting activity score ([3]; 10 µM): 14.5
cell painting activity score ([3]; 20 µM): 14.9

CCC(=O)CCCCC[C@@H]1NC(=O)[C@H]2CCCCN2C(=O)[C@H]([C@@H](C)CC)NC(=O)[C@H](Cc2cn(OC)c3ccccc23)NC1=O
AUC of culture confluence over time ([1]; 5 µM): 22.3
AUC of culture confluence over time ([1]; 10 µM): 21.7
AUC of culture confluence over time ([1]; 20 µM): 19.6
relative cell count ([2]; 0.625 µM): 0.946
relative cell count ([2]; 1.25 µM): 0.821
relative cell count ([2]; 2.5 µM): 0.617
relative cell count ([2]; 5 µM): 0.59
relative cell count ([2]; 10 µM): 0.617
relative cell count ([2]; 20 µM): 0.553
cell painting activity score ([3]; 0.625 µM): 16.3
cell painting activity score ([3]; 1.25 µM): 16
cell painting activity score ([3]; 2.5 µM): 16.4
cell painting activity score ([3]; 5 µM): 16
cell painting activity score ([3]; 10 µM): 13.2
cell painting activity score ([3]; 20 µM): 13.1

COC(=O)[C@@]12OC[C@]34[C@H]([C@@H](O)[C@@H]1O)[C@@]1(C)CC(=O)C(O)=C(C)[C@@H]1C[C@H]3OC(=O)[C@H](OC(=O)CC(C)C)[C@@H]24
AUC of culture confluence over time ([1]; 5 µM): 14.4
AUC of culture confluence over time ([1]; 10 µM): 12.2
AUC of culture confluence over time ([1]; 20 µM): 13.9
relative cell count ([2]; 0.625 µM): 0.469
relative cell count ([2]; 1.25 µM): 0.475
relative cell count ([2]; 2.5 µM): 0.461
relative cell count ([2]; 5 µM): 0.47
relative cell count ([2]; 10 µM): 0.397
relative cell count ([2]; 20 µM): 0.365
cell painting activity score ([3]; 0.625 µM): 15.1
cell painting activity score ([3]; 1.25 µM): 15.9
cell painting activity score ([3]; 2.5 µM): 16.9
cell painting activity score ([3]; 5 µM): 17.5
cell painting activity score ([3]; 10 µM): 18.1
cell painting activity score ([3]; 20 µM): 17.9
